Laboratory results from paper PMC12194779, “Synergistic Insecticidal Activity of Plant Volatile Compounds: Impact on Neurotransmission and Detoxification Enzymes in Sitophilus zeamais” (Insects, 2025).
Where “and” joins values, the source holds several entries; their conditions need not be identical. Equal values may be shown once. Read-outs that look alike come from different tables or passages of the source.

Experiments:
Sitophilus zeamais [1] = test: whole plant or invertebrate; conditions: for LC50 / EC90: Sitophilus zeamais; for EC90: read-out: Fumigant Toxicity LC90 (95% FL)
Procedure: (§1) The insects used in this study were Sitophilus zeamais Motschulsky (Coleoptera: Curculionidae), identified by the Instituto Colombiano Agropecuario (ICA) under report number R3823M0000425. […] The adult insects used in all the experiments were 6 to 10 days post-emergence.
The treated disks were affixed to the inner surface of the screw cap of 22 mL glass vials. […] All treatments were performed in two independent experiments, each with five replicates.
(§2) Mixtures predicted by the RSM were prepared based on mole fractions. […] Four replicates were performed for each treatment and control across two independent experimental runs.
Dose reduction indices (DRIs) were also calculated to estimate how much the dose of each compound in a synergistic combination could be reduced to achieve a 50% effect (Equation (4)). DRIs were interpreted as favorable when >1, neutral at 1, and unfavorable when <1. Values above the log DRI = 0 line indicate favorable dose reductions.(4) (IRD)i=CL50i(fax)i/(1−(fax)i)^1/mi/(D)i

AChE of S. zeamais = test: AChE activity assay (modified Ellman) with S. zeamais protein extract; assay type: biochemical, Sitophilus zeamais; set-up: key to AChE Effect Inhibitor Type: C: competitive inhibitor; NC: non-competitive inhibitor; conditions: for AChE Effect Inhibitor Type: Lineweaver–Burk; for AChE Effect IC50 ± SD / Ki: S. zeamais protein extract; for Ki: read-out: AChE Effect ki ± SD (inhibitory constant)
Procedure: The compounds and mixtures evaluated in the in vitro assays were prepared in the same buffer supplemented with 0.5% (v/v) Triton X-100 (Sigma-Aldrich®, Saint Louis, MO, USA).
The supernatant was filtered, and 20 mM benzamidine was added. The extracts were stored in 5 mL aliquots at −20 °C. Preliminary assays were performed to quantify the specific activity of AChE (0.02–1.00 U/mL), GST (0.1–0.8 U/mL), and CAT (0.1–25 U/mL), and to optimize assay conditions (enzyme dilution: 1/8 to 1% v/v; substrate concentrations: 2 × km or within assay linearity).
Then, 50 µL of DTNB and 50 µL of ATChI were added. […] Inhibition percentages were calculated using Equation (5).

[2] = system: glutathione S-transferase (GST) activity in S. zeamais; test: GST activity assay (modified Habig) with S. zeamais protein extract; assay type: biochemical, Sitophilus zeamais; conditions: 120 mg/L
Procedure: Enzymatic assays were performed in the assay buffer, consisting of 0.1 M potassium phosphate buffer (pH 7.2). The compounds and mixtures evaluated in the in vitro assays were prepared in the same buffer supplemented with 0.5% (v/v) Triton X-100 (Sigma-Aldrich®, Saint Louis, MO, USA).
A modified version of the method described by Oviedo et al. was used. Adults of S. zeamais (8 g; ~3125 insects) were frozen in liquid nitrogen, homogenized in a 1:10 ratio with assay buffer, and centrifuged at 13,000× g for 60 min at 4 °C. The supernatant was filtered, and 20 mM benzamidine was added. The extracts were stored in 5 mL aliquots at −20 °C. Preliminary assays were performed to quantify the specific activity of AChE (0.02–1.00 U/mL), GST (0.1–0.8 U/mL), and CAT (0.1–25 U/mL), and to optimize assay conditions (enzyme dilution: 1/8 to 1% v/v; substrate concentrations: 2 × km or within assay linearity). Each experiment was performed independently three times, with three technical replicates per experiment.
A modified version of Habig’s method was used. The protein extract (50 µL; 0.59 U/mL) was incubated with 50 µL of the compound or mixture (120 mg/L), followed by 50 µL each of CDNB and reduced glutathione (GSH). Kinetic absorbance was measured at 340 nm for 8 min. Blanks (without substrate) and quercetin (positive control) were included. Inhibition (%) was calculated using Equation (5), and treatment differences were evaluated via parametric ANOVA (α = 0.05) in GraphPad Prism 8.0.2 [42, 43]. Each experiment was performed independently three times, with three technical replicates per experiment.(5) % Inhibition=1−Am−AB/AC ×100 where Am is the absorbance of the sample, AB is the absorbance of the blank, and AC is the absorbance of the negative control.

Sitophilus zeamais [3] = assay type: in vivo; conditions: for Contact Toxicity LD50i (LC-95%): mixtures and their components (Table 3)
Procedure: as §1
Groups of 10 insects, previously placed in Petri dishes, were immobilized by exposure to low temperatures (0 °C). An initial dose of 50.0 µg per adult was applied topically to the dorsal thorax of each insect using aliquots of 0.20 µL from 0.25 mg/µL solutions in n-hexane. […] All treatments were performed in two independent experiments, each with four replicates. Insect mortality was assessed after 24 h, and mortality percentages were calculated using Abbott’s correction formula (Equation (1)).
as §2
Dose reduction indices (DRIs) were also calculated to estimate how much the dose of each compound in a synergistic combination could be reduced to achieve a 50% effect (Equation (4)). DRIs were interpreted as favorable when >1, neutral at 1, and unfavorable when <1.

[4] = 24 h, read-out: Fumigant Toxicity LC50i (LC-95%)
[5] = in Homo sapiens, 24 h, read-out: Fumigant Toxicity LC50 (95% FL)
[6] = read-out: LC50 values, fumigant activity (Figure 3)

Molecule | LC50 (Sitophilus zeamais [1]; [4]) [µg/mL] | LC50 (Sitophilus zeamais [1]; [5]) | EC90 (Sitophilus zeamais [1]; in Homo sapiens, 24 h) | GST Inhibition λ340 (%) [2] | Contact Toxicity LD50 (95% FL) (Sitophilus zeamais [3]; topical, 24 h after exposure) | Contact Toxicity LD90 (95% FL) (Sitophilus zeamais [3]; topical, 24 h after exposure) | also measured
C=C(C)C1CC=C(C)CC1 (racemic) [Compound C16, DL-Limonene (1:1)] | 88.7 | 88.7 µg/mL and 651 µM | 136 µg/mL and 999 µM | 7.4% | – | – | AChE inhibition type (Lineweaver–Burk plots), in words (AChE of S. zeamais): non-competitive inhibition; AChE Effect Inhibitor Type (AChE of S. zeamais): NC; AChE Effect IC50 ± SD (AChE of S. zeamais): 26.69 ± 2.90 µg/mL; Ki (AChE of S. zeamais): 79.64 ± 0.55 µM
C=C(C)[C@H]1CC=C(C)C(=O)C1 [Compound C3, S-(+)-Carvone] | 2.87 | 2.87 µg/mL and 19.1 µM | 5.31 µg/mL and 35.4 µM | 23.0% | 12.68 (10.91–14.60) µg/Adult | 23.236 (20.46–27.42) µg/Adult | LC50 (Sitophilus zeamais [1]; [6]): 2.87 µg/mL; Contact Toxicity LD50i (LC-95%) (Sitophilus zeamais [3]): 12.68 µg/Adult; AChE inhibition type (Lineweaver–Burk plots), in words (AChE of S. zeamais): competitive inhibition; AChE Effect Inhibitor Type (AChE of S. zeamais): C; AChE Effect IC50 ± SD (AChE of S. zeamais): 66.27 ± 4.35 µg/mL; Ki (AChE of S. zeamais): 56.76 ± 0.18 µM
CC1C(=O)CC2(C(C)C)CC12 (stereo not drawn) [Compound C6, α, β-Thujone (70:10)] | – | 4.34 µg/mL and 28.5 µM | 6.81 µg/mL and 44.7 µM | – | 32.04 (29.44–34.42) µg/Adult | 44.67 (41.56–49.34) µg/Adult | –
C=C(C)[C@@H]1CC[C@@H](C)C[C@H]1O [Compound C7, 1R,2S,5R-Isopulegol] | 4.73 | 4.73 µg/mL and 30.7 µM | 7.19 µg/mL and 46.6 µM | 10.6% | – | 26.65 (25.07–28.90) µg/Adult | AChE inhibition type (Lineweaver–Burk plots), in words (AChE of S. zeamais): competitive inhibition; AChE Effect Inhibitor Type (AChE of S. zeamais): C; AChE Effect IC50 ± SD (AChE of S. zeamais): 18.15 ± 0.64 µg/mL; Ki (AChE of S. zeamais): 282 ± 4.14 µM
CC1(C)C(=O)[C@]2(C)CC[C@H]1C2 [Compound C8, 1R-(−)-Fenchone] | – | 10.6 µg/mL and 69.6 µM | 17.1 µg/mL and 112 µM | – | 34.65 (32.19–37.08) µg/Adult | 48.33 (45.12–52.78) µg/Adult | –
CCCCCCCC(C)=O [Compound C9, 2-Nonanone] | – | 9.09 µg/mL and 63.9 µM | 13.7 µg/mL and 96.5 µM | – | 31.86 (30.27–33.17) µg/Adult | 39.69 (38.01–42.15) µg/Adult | –
C=CCc1ccc(OC)cc1 [Compound C11, Estragole] | 30.5 | 30.5 µg/mL and 206 µM | 57.5 µg/mL and 388 µM | ~ 17.5% and 17.6% | – | – | Contact Toxicity LD90 (95% FL) (Sitophilus zeamais [3]; in vivo): 79.66 (68.62–99.73) µg/Adult; AChE inhibition type (Lineweaver–Burk plots), in words (AChE of S. zeamais): competitive inhibition; AChE Effect Inhibitor Type (AChE of S. zeamais): C; AChE Effect IC50 ± SD (AChE of S. zeamais): 27.41 ± 1.64 µg/mL; Ki (AChE of S. zeamais): 159 ± 6.34 µM
CC1=CC[C@H]2[C@@H](C1)C2(C)C [Compound C15, δ-3-Carene] | 80.3 | 80.3 µg/mL and 590 µM | 136 µg/mL and 997 µM | 7.3% | – | – | AChE inhibition type (Lineweaver–Burk plots), in words (AChE of S. zeamais): non-competitive inhibition; AChE Effect Inhibitor Type (AChE of S. zeamais): NC; Ki (AChE of S. zeamais): 2.85 ± 0.05 µM
C=C1CCC2CC1C2(C)C (stereo not drawn) [Compound C17, β-Pinene] | – | – | 151 µg/mL | – | – | – | –
C=C1CCC2(C(C)C)CC12 (stereo not shown) [Compound C18, Sabinene] | 68.7 | 68.7 µg/mL and 504 µM | 102 µg/mL and 750 µM | 25.9% | – | – | LC50 (Sitophilus zeamais [1]; [6]): 68.6 µg/mL
CC1=CCC(C(C)C)=CC1 [Compound C21, γ-Terpinene] | 108 | 108 µg/mL and 792 µM | 188 µg/mL and 1.38 mM | 25.9% | – | – | –
CC1=CC(=O)C(C(C)C)CC1 (stereo not shown) [Compound C22, Piperitone] | – | 4.38 µg/mL and 28.8 µM | 6.19 µg/mL and 40.7 µM | – | – | 14.70 (13.25–16.96) µg/Adult | –
C=C(C)[C@@H]1CC[C@@H](C)CC1=O [Compound C23, 2S,5R-Isopulegone] | 2.37 | 2.37 µg/mL and 15.6 µM | 3.88 µg/mL and 25.5 µM | 19.4% | – | 18.48 (16.56–21.64) µg/Adult | Contact Toxicity LD50i (LC-95%) (Sitophilus zeamais [3]): 11.14 µg/Adult
CC1=CCC(=C(C)C)CC1 [Compound C24, Terpinolene] | – | 52.1 µg/mL and 338 µM | 88.8 µg/mL and 576 µM | – | – | – | –
CC(C)=CCC/C(C)=C/C=O [Compound C27, Citral] | – | – | – | – | – | 32.68 (29.77–36.82) µg/Adult | –
C=CC(C)(O)CCC=C(C)C (stereo not shown) [Compound C28, Linalool] | – | – | – | – | 21.87 (19.09–24.23) µg/Adult | 36.23 (33.20–40.64) µg/Adult | –
CC(C)=CCC/C(C)=C/CO [Compound C30, Geraniol] | – | – | – | – | 28.13 (25.70–30.49) µg/Adult | 41.06 (37.98–45.41) µg/Adult | –
C=CCc1ccc2c(c1)OCO2 [Compound C32, Safrole] | – | – | – | – | 36.31 (30.15–42.37) µg/Adult | 83.04 (73.50–96.63) µg/Adult | Contact toxicity, times less active than biosynthetic precursors C26 and C31 (Sitophilus zeamais [3]; in vivo): 1.5 times
CCCCCCCC(=O)CCC [Compound C34, 4-Undecanone] | – | – | – | – | 37.05 (34.09–40.01) µg/Adult | 53.95 (49.63–60.68) µg/Adult | –
CCCCCCCCC(C)=O [Compound C35, 2-Decanone] | – | – | – | – | 38.04 (35.29–40.84) µg/Adult | 57.17 (52.97–63.12) µg/Adult | LC50 (Sitophilus zeamais [1]; [6]): > 150 µg/mL
CCCCCCCCCC(C)=O [Compound C36, 2-Undecanone] | – | – | – | – | 42.86 (40.60–45.30) µg/Adult | 57.13 (53.43–62.83) µg/Adult | –
CC(=O)OC/C=C(\C)CCC=C(C)C [Compound C37, Geranyl acetate] | – | – | – | – | 73.00 (65.98–81.05) µg/Adult | 126.06 (112.84–146.08) µg/Adult | –
CC1(C)C(C=C(Cl)Cl)C1C(=O)OC(C#N)c1cccc(Oc2ccccc2)c1 (stereo not shown) [Cypermethrin, reference compound] | – | – | – | – | 10.492 (0.00–29.96) µg/Adult | 35.79 (21.98–84.37) µg/Adult | Contact Toxicity LD50i (LC-95%) (Sitophilus zeamais [3]): 10.49 (0.10–19.96) µg/Adult; Contact Toxicity LD50i (LC-95%) (Sitophilus zeamais [3]; listed as cypermethrin): 10.49 µg/Adult
COP(=O)(OC)OC=C(Cl)Cl [Dichlorvos, reference compound] | 2.17 | 2.17 µg/mL and 9.84 µM | 4.57 µg/mL and 20.7 µM | – | – | – | Fumigant Toxicity LC50i (LC-95%) (Sitophilus zeamais [1]; mixtures and their components (Table 3)): 2.17 (1.53–3.81) mg/L; AChE Effect IC50 ± SD (AChE of S. zeamais): 0.0096 ± 0.00208 µg/mL
Isoeugenol [Compound C31] | – | – | – | – | 29.1 (24.40–34.21) µg/Adult | 66.2 (57.28–80.01) µg/Adult | –
